We go through two compounds from patent US12383653B2, “Neutral multidomain peptide hydrogels and uses thereof” (William Marsh Rice University, priority 2018, dated 2025).

The structures appear in SMILES notation. Entries after “also recorded” stand apart in the source; their conditions may differ. Where a SMILES comes first, the peptide text is derived from it. [ ]: non-standard residue; d: D form. Hyp = O=C(O)[C@@H]1C[C@@H](O)CN1

The subject of one data set is NIH-3T3 fibroblasts. Put plainly: 3D culture cytocompatibility, Calcein AM / Ethidium homodimer-1 viability and cell morphology. To be noted: for percentage of viable cells: day 3 compared with day 1; for cytotoxicity / viability over the culture: days 1 to 5, 1 wt.% hydrogel; for cell proliferation / viable cell density in the gel: up to day 5. In kind it is cell-based. The procedure: (§1) Cytocompatibility and cell viability studies. All cell culture materials, not otherwise specified, were purchased from Gibco, Life Technologies. NIH-3T3 fibroblast cells were cultured in Dulbecco's Modified Eagle Medium (DMEM) supplemented with 10% Fetal Bovine Serum (FBS), 2% L-glutamine (200 mM), 1% sodium pyruvate (100 mM), and 1% pen-strep solution (5000 units/mL of penicillin and 5 mg/mL of streptomycin, Sigma-Aldrich, St. Louis, MO). Cells were maintained at 37° C. and 5% CO2 with humidity and split when reaching 80%-90% confluency by treatment with 0.25% trypsin-EDTA and neutralization with complete media. Cells were centrifuged for 6 min at 1600 rpm, then the cell pellet was dispersed in HBSS, counted and adjusted to the required concentration. 3D cell culture in K2 hydrogel was achieved by mixing a 2% by weight peptide stock solution in 298 mM sucrose with a cell suspension of 2×10^6 cells/mL in HBSS. The final concentration was 1% by weight K2 hydrogel in 149 mM sucrose and 0.5×HBSS with 1×10^6 cells/mL. For O5 peptide, hydrogel was prepared by sonication using only 90% of the required 149 mM sucrose-0.5×HBSS to obtain a 1% by weight concentration, the remaining 10% was added as a cell suspension, and mixed by pipetting into the gel to obtain a final concentration of 1×10^6 cells/mL evenly distributed though the volume of the hydrogel. 70 μL of seeded hydrogels were cultured in a Lab-Tek 16-well glass chamber ([…], Thermo Fisher, Rochester, NY) with 200 μL of medium and fed every 2 days by replacing 100 μL with fresh media. Cell viability was analyzed using a live/dead viability kit (Invitrogen, Thermo Fisher, Carlsbad, CA). At specific time points, the medium was removed, and gels were rinsed with 1×PBS, then 100 μL of staining solution containing 2 μM Calcein AM and 4 μM Ethidium homodimer-1 in DPBS were added. Cells were incubated from 15 to 30 min and imaged using a Nikon A1 Rsi fluorescent confocal microscope (Nikon Instruments, Tokyo, Japan). Three z-stack images of 100 μm deep per sample were taken at 20× using a 488 nm green channel and 561 nm red channel lasers. Images were processed with NIS Element and live/dead cell counting was performed on Imaris 3D/4D Image Processing software (Bitplane, Concord, MA).
(§2) To evaluate the cell morphology, hydrogels were rinsed with PBS and fixed with 10% buffered formalin for 30 min Cells were treated with 0.5% Triton X for 10 min and 100 mM glycine for 10 min, followed by 10% Bovine Serum Albumin (BSA) in HBSS block solution. Then cells were stained for filamentous actin with Alexa Fluor® 488-Phalloidin and for the nuclei with ProLong® Gold Antifade DAPI mounting media. Cell in the hydrogels were analyzed by confocal microscopy using a 40× water objective and processed as described.

Test in data set [1]: as above
To be noted: mouse; day 1 after encapsulation, 1 wt.% hydrogel; read-out: percentage of viable cells. In kind it is cell-based. The procedure: as §1, §2

A short description of data set [2]: Hydrogel formation (inverted-vial test, pH, ionic strength, buffers). Conditions: for hydrogel formation at acidic, neutral and basic pH: 1% by weight, pH adjusted with HCl or NaOH, inverted-vial test / CD. It is filed as physicochemical. The procedure: Hydrogel Formation. Peptide solutions of O5 were prepared at 1% by weight (4.2 mM) in 149 mM sucrose and 0.5×HBSS. This buffer system was chosen to be consistent with prior MDP experiments and find optimum gelling conditions for future in vivo and in vitro work. Peptide solutions were sonicated using a Microson Ultrasonic Cell Disruptor with a 2 mm microprobe. The instrument frequency was 22.5 kHz and a power output up to 10 watts (RMS) was used. Solutions were sonicated at room temperature for 1 or 10 cycles, where each cycle consisted of 10 pulses and 1 min relaxation time between cycles. For the study of hydrogelation of O5, K2 and E2 at different pH values and ionic strength, 1% by weight peptide solutions were prepared in deionized water, PBS, or HBSS. pH was adjusted using HCl or NaOH 0.1 M solutions.

Data set [3] is described as follows: In vivo host response, subcutaneous injection model. On the set-up: species or system mice. The procedure: In vivo compatibility studies. All experimental procedures were approved by the Rice University Institutional Animal Care and Use Committee (IACUC) and performed according to the Animal Welfare Act and NIH guidelines. Female C57BL/6 mice from 8 to 12 weeks were purchased from Charles River (Wilmington, MA). Mice were injected with 4 implants of 100 μL 1% by weight O5 hydrogel in the dorsal subcutaneous space using a 26-gauge needle. At days 3, 7, and 14 mice were euthanized, and implants were extracted, fixed with 10% neutral buffered formalin and processed into paraffin blocks. Tissue was sectioned at 5 μm thickness and stained with hematoxylin and eosin, and Masson's trichome under standard procedures. For fluorescent immunostaining, tissue sections were deparaffinized, hydrated and antigens were retrieved by boiling in sodium citrate buffer (10 mM sodium citrate, 0.05% Tween 20 at pH 6.0). Tissues were permeabilized with 0.5% Triton X and blocked with 1% BSA in PBS for 30 min. Tissues were incubated overnight at 4° C. with rat anti-Mouse F4/80 monoclonal antibody (1:50, clone BM8, eBioscience™, Cat #14-4801-82). Then, samples were incubated for 1 hour with goat anti-rat AlexaFluor® 568 (1:500, Invitrogen), followed by mounting with ProLong® Gold Antifade reagent with DAPI. Tissue slides were analyzed by confocal fluorescent microscopy.

Data set [4] in a line: Secondary structure estimation from circular dichroism in TFE, least square linear method. To be noted: TFE at 25° C., 1 wt.%. In kind it is physicochemical. The procedure: Circular Dichroism (CD) spectroscopy. For secondary structure characterization, peptide solutions of 1% by weight (molar concentration is included in Table 2) were prepared in 2,2,2-trifluoroethanol (TFE, Sigma Aldrich, St. Louis, MO). CD spectra acquisition was performed in a CD Jasco J-810 spectropolarimeter (Jasco Inc., Easton, MD) using a 0.01 mm cuvette. Data were collected at room temperature from 180 to 250 nm at a speed of 50 nm/min, with a 0.1 nm data pitch and the spectra were averaged over 5 scans. To study the hydrogelation of O5, 1% by weight peptide solutions were made in 149 mM sucrose solution in 0.5× Hank's Balanced Salt Solution (HBSS, Life Technologies) and analyzed as previously described.
To estimate the secondary structure of O peptide series, data fitting using the least square linear method was performed in MATLAB (Mathworks, Natick, MA). (Hyp)6, O1(SL)6O1 and K2(SL)6K2 were used as basis spectra for polyproline type II, β-sheet and α-helix, respectively (FIG. 7).

Data set [5] can be described thus: Oscillatory rheology of 1 wt.% hydrogel. In kind it is physicochemical. The procedure: Oscillatory Rheology. Rheological properties of O5 hydrogel were analyzed by oscillatory rheology using a TA Instruments AR-G2 rheometer (TA Instruments, New Castle, DE). Hydrogels were prepared 24 h before the analysis as described above. 150 μL of 1% by weight peptide hydrogels were transferred from a cut syringe onto the rheometer stage equipped with a 12 mm stainless-steel parallel plate set to a 1000 μm gap height. The following program was used to monitor the storage modulus (G′) and loss modulus (G″) under various conditions as has been previously published (Li et al., 2017). Strain sweep analysis was performed using an applied strain of 0.01%-200% at a frequency of 1 rad/s. Frequency sweep analysis was performed under 1% strain at 0.1-100 rad/s. Shear recovery analysis was performed by subjecting the peptide sample to 1% strain for 20 min, then 200% for 1 min, and finally 1% for 20 min, allowing for disruption of the hydrogel and monitoring of G′ and G″ recovery.

For the compound `CC(=O)N[C@@H](CCCCN)C(=O)N[C@@H](CCCCN)C(=O)N[C@@H](CO)C(=O)N[C@@H](CC(C)C)C(=O)N[C@@H](CO)C(=O)N[C@@H](CC(C)C)C(=O)N[C@@H](CO)C(=O)N[C@@H](CC(C)C)C(=O)N[C@@H](CO)C(=O)N[C@@H](CC(C)C)C(=O)N[C@@H](CO)C(=O)N[C@@H](CC(C)C)C(=O)N[C@@H](CO)C(=O)N[C@@H](CC(C)C)C(=O)N[C@@H](CCCCN)C(=O)N[C@@H](CCCCN)C(N)=O` [Peptide K2, Ac-KKSLSLSLSLSLSLKK-CONH2, reference compound], in the data set on NIH-3T3 fibroblasts, the “percentage of viable cells” value is given as “relatively unchanged”; the “cytotoxicity / viability over the culture” value is “somewhat cytotoxic during the first days of cell culture”; the “cell proliferation / viable cell density in the gel” value is “by day 5 cell density is significantly higher than days 1 and 3”. Also, in data set [1], the viability at 24 h, 1 % by weight was about 20%. The “hydrogel formation at acidic, neutral and basic pH” value (“hydrogel formation at acidic” below) in data set [2] is given as “dependent on pH; also recorded: forms a gel at pH 11”. Moreover, in data set [2] (listed as K2(SL)6K2), the “hydrogel formation at acidic” value is on record as “gels only forming at neutral pH or at elevated ionic strength”.

With `CC(=O)N1C[C@H](O)C[C@H]1C(=O)N1C[C@H](O)C[C@H]1C(=O)N1C[C@H](O)C[C@H]1C(=O)N1C[C@H](O)C[C@H]1C(=O)N1C[C@H](O)C[C@H]1C(=O)N[C@@H](CO)C(=O)N[C@@H](CC(C)C)C(=O)N[C@@H](CO)C(=O)N[C@@H](CC(C)C)C(=O)N[C@@H](CO)C(=O)N[C@@H](CC(C)C)C(=O)N[C@@H](CO)C(=O)N[C@@H](CC(C)C)C(=O)N[C@@H](CO)C(=O)N[C@@H](CC(C)C)C(=O)N[C@@H](CO)C(=O)N[C@@H](CC(C)C)C(=O)N1C[C@H](O)C[C@H]1C(=O)N1C[C@H](O)C[C@H]1C(=O)N1C[C@H](O)C[C@H]1C(=O)N1C[C@H](O)C[C@H]1C(=O)N1C[C@H](O)C[C@H]1C(N)=O` [Peptide O5, Ac-OOOOOSLSLSLSLSLSLOOOOO-CONH2] (Ac-[Hyp][Hyp][Hyp][Hyp][Hyp]SLSLSLSLSLSL[Hyp][Hyp][Hyp][Hyp][Hyp]-NH2), the “cell spreading and adhesion to the material” value with NIH-3T3 fibroblasts (5 days encapsulated, actin staining) is “do not spread and adhere to the material”. Moreover, the “cell recovery after extraction from the hydrogel” value in the data set on NIH-3T3 fibroblasts (after 5 days of culture) is “recover, grow, and proliferate”. Further, in the data set on NIH-3T3 fibroblasts, the “percentage of viable cells” value is listed as “relatively unchanged”; the “cytotoxicity / viability over the culture” value is listed as “good initial viability, which remains constant throughout the experiment”; the “cell proliferation / viable cell density in the gel” value is “not observed to proliferate”. In addition, the viability at 24 h, 1 % by weight in data set [1] is about 70%. Further, in data set [3] (compared to K2 hydrogel), the inflammatory response entry is “weaker inflammatory response”. In addition, the implant degradation result in data set [3] (day 14) was “almost completely degraded”. Further, the “collagen deposition / remodeling” value in data set [3] (day 14, Masson's trichrome) is given as “natural collagen is observed”. Besides, in data set [3] (subcutaneous implant, in contrast with PEG), the fibrous encapsulation result is reported as “not fibrously encapsulated”. Moreover, in data set [4], the “% PPII” value is listed as 50%, the “% α-helix” value is reported as 40.5%, the “% β-sheet” value is given as 9.5% and the “Predominant Structure” value is given as “PPII”. Further, in data set [5], the “loss modulus (G″)” value came out at 1.7±0.5 Pa and the “storage modulus (G′)” value stood at 23.3±8.7 Pa. Besides, the “state of the peptide at 10 mg/mL” value in data set [2] (10 mg/mL) is “forms a hydrogel”. Also, the “hydrogelation in cell culture media” value in data set [2] (1% by weight in 149 mM sucrose and 0.5×HBSS, ultrasonication) is given as “forms a self-supportive hydrogel”. Moreover, the “hydrogel formation at acidic” value in data set [2] was “remains a hydrogel at acidic, neutral and basic pH; also recorded: remains a hydrogel at all pH”. The “pH range over which peptide remains a hydrogel” value in data set [2] (also in deionized water, PBS and HBSS) is 3-11.
